We go through 29 molecules from patent US10213415B2, “Compounds as opioid receptor modulators” (JANSSEN PHARMACEUTICA NV, priority 2004, dated 2019).

pKi: −log10 of the molar value.

In one experiment the target is T1, delta opioid receptor (Rattus norvegicus, UniProt P33533).
T1 construct: from tissue; host or cells: forebrain of male Wistar rats
Put plainly: Rat Brain Delta Opioid Receptor Binding Assay ([3H]DPDPE). As to conditions: rat forebrain membranes, margin of error 10-20%, read-out: r Ki δ. How it is done:
(§1) Male, Wistar rats (150-250 g, VAF, Charles River, Kingston, N.Y.) are killed by cervical dislocation, and their brains removed and placed immediately in ice cold Tris HCl buffer (50 mM, pH 7.4). The forebrains are separated from the remainder of the brain by a coronal transection, beginning dorsally at the colliculi and passing ventrally through the midbrain-pontine junction. After dissection, the forebrains are homogenized in Tris buffer in a Teflon® glass homogenizer. The homogenate is diluted to a concentration of 1 g of forebrain tissue per 80 mL Tris and centrifuged at 39,000×g for 10 min. The pellet is resuspended in the same volume of Tris buffer containing 5 mM MgCl2 with several brief pulses from a Polytron homogenizer. This particulate preparation is used for the delta opioid binding assays. Following incubation with the delta selective peptide ligand ˜4 nM [^3H]DPDPE at 25° C. for 2.5 h in a 96-well plate with total volume of 1 mL, the plate contents are filtered through Wallac filtermat B sheets on a Tomtec 96-well harvester. The filters are rinsed three times with 2 mL of 10 mM HEPES (pH 7.4), and dried in a microwave oven 2 min twice. To each sample area 2×50 μL of Betaplate Scint scintillation fluid (LKB) is added and analyzed on a LKB (Wallac) 1205 BetaPlate liquid scintillation counter.
The data are used to calculate either the % inhibition compared to control binding (when only a single concentration of test compound is evaluated) or a Ki value (when a range of concentrations is tested). % inhibition is calculated as: [(total dpm−test compound dpm)/(total dpm−nonspecific dpm)]*100. Kd and Ki values were calculated using GraphPad PRISM data analysis program.

A further experiment addresses T2, mu opioid receptor (Rattus norvegicus, UniProt P33535).
T2 construct: from tissue; host or cells: forebrain of male Wistar rats
Put plainly: Rat Brain Mu Opioid Receptor Binding Assay (and Version 2a, [3H]DAMGO). The settings on record: rat forebrain membranes, margin of error 10-20%, read-out: r Ki μ. How it is done: as §1, with “mu-opioid” for “delta opioid”, “Following incubation with the delta selective peptide ligand ˜4 nM [^3H]DPDPE at 25° C. for 2.5 h in a 96-well plate with total volume of 1 mL, the plate contents are filtered through Wallac filtermat B sheets on a Tomtec 96-well harvester.” left out, “(pH7.4),” for “(pH 7.4),”
The data are used to calculate either the % inhibition compared to control binding (when only a single concentration of test compound is evaluated) or a Ki value (when a range of concentrations is tested). % inhibition is calculated as: [(total dpm-test compound dpm)/(total dpm-nonspecific dpm)]*100. Kd and Ki values were calculated using GraphPad PRISM data analysis program.
Male, Wistar rats (150-250 g, VAF, Charles River, Kingston, N.Y.) were killed by cervical dislocation, and their brains removed and placed immediately in ice-cold Tris HCl buffer (50 mM, pH 7.4). The forebrains were separated from the remainder of the brain by a coronal transection, beginning dorsally at the colliculi and passing ventrally through the midbrain-pontine junction. After dissection, the forebrains were homogenized in Tris buffer in a Teflon®-glass homogenizer. The homogenate was diluted to a concentration of 1 g of forebrain tissue per 80 mL Tris and centrifuged at 39,000×g for 10 min. The pellet was resuspended in the same volume of Tris buffer containing 5 mM MgCl2 with several brief pulses from a Polytron homogenizer. This particulate preparation was used for the mu opioid binding assay. Following incubation with 0.8 nM of the mu selective ligand [^3H]DAMGO at 25° C. for 2.5 h in a 96-well plate with total 1 mL, the plate contents were filtered through Wallac filtermat B sheets on a Tomtec 96-well harvester. The filters were rinsed three times with 2 mL of 10 mM HEPES (pH 7.4), and dried in a microwave oven. To each sample area, Betaplate Scint scintillation fluid (LKB) was added and the resulting radioactivity quantified on a LKB (Wallac) 1205 BetaPlate liquid scintillation counter. Kd and Ki values were calculated using the GraphPad PRISM data analysis program.

The target of experiment [1] is T3, mu opioid receptor (CHO-hMOR cell membranes) (Homo sapiens, UniProt P35372).
T3 construct: purchased Receptor Biology, Inc. (Baltimore, Md.); host or cells: CHO cells (recombinant expression)
Put plainly: Mu Opioid Receptor Functional Assay: [35S]GTPγS Binding in CHO-hMOR Cell Membranes, Versions 1 and 2. Format: biochemical. As to conditions: for MOR GTP binding assay_v1 (% I): version 1, % inhibition of agonist-stimulated GTPγS binding; for MOR GTP assay_v1 % of Basal: version 1, basal binding = 100%. Summed up: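 CHO-hMOR membranes (10 μg/ml) on WGA SPA beads, preincubated 45 min at 25 °C, then incubated with 0.5 nM [35S]GTPγS in HEPES pH 7.6, 5 mM MgCl2, 100 mM NaCl, 1 mM DTT, 1 mM EDTA. Non-specific binding with 10 μM unlabeled GTPγS; agonist EC50 from concentration-response, antagonism as inhibition of 1 μM SNC80-stimulated binding.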
In general terms: GTPγS resists hydrolysis and so accumulates on activated G proteins.

For the next experiment, the target named is T4, human mu opioid receptor (Homo sapiens, UniProt P35372).
T4 construct: purchased Perkin Elmer RBHOMM400UA; host or cells: Chinese Hamster Ovary cells (recombinant expression)
Kind of experiment: Human Mu Opioid Receptor Binding Assay (CHO membranes, 3H-Damgo). The settings on record: read-out: hKi μ. Summed up: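 Membranes from CHO cells expressing human mu opioid receptor, 300 μg/mL, in 50 mM Tris pH 7.5, 5 mM MgCl2. Incubated with compound and ³H-Damgo (3.6 nM before mixing) for 2 h at room temperature, filtered, counted by scintillation. Nonspecific binding with 1 μM unlabelled Damgo.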

T1 sequence (P33533 whole entry): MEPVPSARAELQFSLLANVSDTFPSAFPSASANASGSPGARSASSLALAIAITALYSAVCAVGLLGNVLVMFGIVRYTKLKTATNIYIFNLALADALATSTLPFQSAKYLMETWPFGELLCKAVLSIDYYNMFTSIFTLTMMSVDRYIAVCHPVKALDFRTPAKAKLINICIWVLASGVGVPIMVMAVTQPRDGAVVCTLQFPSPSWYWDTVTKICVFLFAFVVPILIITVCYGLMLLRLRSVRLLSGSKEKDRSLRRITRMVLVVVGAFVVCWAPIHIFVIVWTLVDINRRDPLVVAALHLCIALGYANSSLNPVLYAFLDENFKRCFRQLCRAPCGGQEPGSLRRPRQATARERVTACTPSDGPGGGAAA
T2 sequence (P33535 whole entry): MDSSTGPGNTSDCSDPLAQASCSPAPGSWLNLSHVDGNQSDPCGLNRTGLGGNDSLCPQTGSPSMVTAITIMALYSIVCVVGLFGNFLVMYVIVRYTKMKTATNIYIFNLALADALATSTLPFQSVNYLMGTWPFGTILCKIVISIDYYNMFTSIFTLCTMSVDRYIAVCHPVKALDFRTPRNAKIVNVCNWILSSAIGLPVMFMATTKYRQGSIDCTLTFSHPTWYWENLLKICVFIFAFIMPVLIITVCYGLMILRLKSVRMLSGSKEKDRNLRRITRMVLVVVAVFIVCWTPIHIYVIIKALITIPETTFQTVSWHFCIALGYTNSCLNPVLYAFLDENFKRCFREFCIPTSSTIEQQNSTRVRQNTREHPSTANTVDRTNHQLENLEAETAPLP
T3 sequence (P35372 whole entry): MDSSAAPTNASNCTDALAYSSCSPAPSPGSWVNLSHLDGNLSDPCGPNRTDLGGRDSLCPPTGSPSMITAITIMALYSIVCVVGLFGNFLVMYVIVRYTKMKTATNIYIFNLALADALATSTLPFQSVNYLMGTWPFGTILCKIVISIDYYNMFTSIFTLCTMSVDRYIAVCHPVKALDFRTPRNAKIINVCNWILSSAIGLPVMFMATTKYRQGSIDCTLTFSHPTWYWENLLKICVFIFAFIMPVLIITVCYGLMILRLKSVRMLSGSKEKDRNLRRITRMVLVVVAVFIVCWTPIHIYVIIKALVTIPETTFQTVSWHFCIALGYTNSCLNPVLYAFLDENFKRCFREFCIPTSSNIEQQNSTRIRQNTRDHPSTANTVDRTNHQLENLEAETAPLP
T4 sequence (P35372 whole entry): as above

As to `COC(=O)c1cc(CN(C(=O)[C@@H](N)Cc2ccc(C(N)=O)cc2)[C@H](C)c2nc(-c3ccccc3)c[nH]2)ccc1OC` [Cpd 281], the pKi on delta opioid receptor is 6.14; on mu opioid receptor, 6.40.

On to `CCNC(=O)c1cc(C)c(C[C@H](N)C(=O)N(C)[C@H](C)c2nc(-c3ccccc3)c[nH]2)c(C)c1` [Cpd 182], for which the pKi on delta opioid receptor is 5.73; at mu opioid receptor, 8.15. Moreover, the “MOR GTP binding assay_v1 (% I)” value in experiment [1] turned out to be 6.00%.

For the molecule `COc1ccc(CN(C(=O)[C@@H](N)Cc2c(C)cccc2C)[C@@H](C)c2nc(-c3ccccc3)c[nH]2)cc1C(=O)O` [Cpd 292], the figures for the pKi at delta opioid receptor and at mu opioid receptor were 7.00 and 9.19, respectively.

`Cc1cc(O)cc(C)c1C[C@H](N)C(=O)N(Cc1nc(-c2ccccc2)c[nH]1)C(C)CN(C)C` (stereo partly shown) [Cpd 167]: in experiment [1], the “MOR GTP binding assay_v1 (% I)” value is on record as 17.00% and the “MOR GTP assay_v1 % of Basal” value is recorded as 780.00%. Moreover, at human mu opioid receptor, the pKi was 8.38. The pKi on mu opioid receptor was 8.50.

Turning to `CNC(=O)c1cc(C)c(C[C@H](N)C(=O)N(C)[C@H](C)c2nc(-c3ccccc3)c[nH]2)c(C)c1` [Cpd 184], in experiment [1], the “MOR GTP binding assay_v1 (% I)” value is 13.00% and the “MOR GTP assay_v1 % of Basal” value worked out at 862.00%. Moreover, at mu opioid receptor, the pKi was 7.71.

Consider `C[C@@H](NC(=O)[C@@H](N)Cc1ccc(O)cc1)c1nc(-c2ccccc2)c[nH]1` [Cpd 212], for which the pKi on delta opioid receptor was 5.89; at human mu opioid receptor it was 7.26; at mu opioid receptor, 6.99.

With `C[C@@H](c1nc(-c2ccccc2)c[nH]1)N(C)C(=O)[C@@H](N)Cc1ccc(S(N)(=O)=O)cc1` [Cpd 189], the pKi is 6.44 at delta opioid receptor and 6.56 at mu opioid receptor.

For `CC(C)[C@H](NC(=O)[C@@H](N)Cc1cccc(C#N)c1)c1nc(-c2ccccc2)c[nH]1` [Cpd 186], the figures for the pKi on delta opioid receptor and on mu opioid receptor were 6.29 and 5.27, respectively.

In the case of `Cc1cc(C(N)=O)cc(C)c1C[C@H](N)C(=O)N(Cc1cccc(C(=O)O)c1)[C@@H](C)c1nc(-c2ccc(Cl)cc2)c(C)[nH]1` [Cpd 12], the pKi on delta opioid receptor is 10.10; at human mu opioid receptor, 8.39.

Regarding `CC(C)[C@@H](c1nc(-c2ccccc2)c[nH]1)N(C)C(=O)[C@@H](N)Cc1ccc(O)cc1` [Cpd 171], the pKi at mu opioid receptor is 6.85.

Take `COc1ccc(CN(C(=O)[C@@H](N)Cc2ccc(O)cc2)[C@@H](C)c2nc(-c3ccccc3)c[nH]2)cc1C(N)=O` [Cpd 297]: the pKi at delta opioid receptor was 7.36; on mu opioid receptor, 9.96.

For `CC(C)C[C@@H](c1nc(-c2ccccc2)c[nH]1)N(C)C(=O)[C@@H](N)Cc1cccc(C(N)=O)c1` [Cpd 168], the figures for the pKi on delta opioid receptor and on mu opioid receptor were 5.05 and 5.27, respectively.

Take `Cc1cc(O)cc(C)c1C[C@H](N)C(=O)N[C@H](c1nc(-c2ccccc2)c[nH]1)C(C)C` [Cpd 187]: the pKi at delta opioid receptor was 5.28; at mu opioid receptor, 6.92.

On to `COc1ccc(CN(C(=O)[C@@H](N)Cc2ccc(O)cc2)[C@@H](C)c2nc(-c3ccc(Cl)cc3)c(C)[nH]2)cc1C(=O)O` [Cpd 293], for which the pKi at delta opioid receptor was 5.50; at mu opioid receptor, 6.19.

As for `C[C@H](NC(=O)[C@@H](N)Cc1ccc(O)cc1)c1nc(-c2ccccc2)c[nH]1` [Cpd 213], the pKi was 5.25 at delta opioid receptor, under 6.00 at human mu opioid receptor and 5.90 at mu opioid receptor.

`Cc1cc(C(=O)N2CCOCC2)cc(C)c1C[C@H](N)C(=O)N(C)[C@H](C)c1nc(-c2ccccc2)c[nH]1` [Cpd 180]: the pKi on delta opioid receptor was 5.28; at mu opioid receptor, 5.92.

As to `CN[C@@H](Cc1ccc(O)cc1)C(=O)N(Cc1ccc(OC)c(C(=O)O)c1)[C@@H](C)c1nc(-c2ccccc2)c[nH]1` [Cpd 262], the results for the pKi on delta opioid receptor, at human mu opioid receptor and at mu opioid receptor were 7.76, 8.49 and 8.96, respectively.

For `Cc1cc(O)cc(C)c1C[C@H](N)C(=O)N(Cc1ccccc1)[C@H](C)c1nc(-c2ccccc2)c[nH]1` [Cpd 220], the figures for the pKi at delta opioid receptor, on human mu opioid receptor and on mu opioid receptor were 5.16, 6.42 and 6.80, respectively.

With `CC(C)N(C(=O)[C@@H](N)Cc1ccc(O)cc1)[C@H](C)c1nc(-c2ccccc2)c[nH]1` [Cpd 222], the pKi is 6.40 at delta opioid receptor, 6.73 at human mu opioid receptor and 7.04 at mu opioid receptor.

`COC(=O)c1cc(CN(C(=O)[C@@H](N)Cc2ccc(O)cc2)[C@@H](C)c2nc(-c3ccccc3)c[nH]2)ccc1OC` [Cpd 279]: the pKi on delta opioid receptor was 8.28; on mu opioid receptor, 9.86.

Regarding `COC(=O)c1cc(CN(C(=O)[C@H](N)Cc2ccc(C(N)=O)cc2)[C@H](C)c2nc(-c3ccccc3)c[nH]2)ccc1OC` [Cpd 284], the pKi was 5.82 at delta opioid receptor and 5.99 on mu opioid receptor.

As for `CC(C)[C@H](NC(=O)[C@@H](N)Cc1ccc(O)cc1)c1nc(-c2ccccc2)c[nH]1` [Cpd 188], the pKi was 6.27 at delta opioid receptor and 6.51 on mu opioid receptor.

`COc1ccc(CN(Cc2nc(-c3ccccc3)c[nH]2)C(=O)[C@@H](N)Cc2c(C)cc(C(N)=O)cc2C)cc1C(=O)O` [Cpd 6]: the pKi is 8.77 on delta opioid receptor and 8.70 at human mu opioid receptor.

For `Cc1cc(C(=O)N2CCOCC2)cc(C)c1C[C@H](N)C(=O)N(C)[C@@H](C)c1nc(-c2ccccc2)c[nH]1` [Cpd 179], the pKi at mu opioid receptor is 5.15.

On to `COc1ccc(CN(C(=O)[C@@H](N)Cc2ccc(O)cc2)[C@@H](C)c2nc(-c3ccccc3)c[nH]2)cc1C(=O)N1CCOCC1` [Cpd 298], for which the pKi was 7.36 at delta opioid receptor and 9.52 at mu opioid receptor.

For the molecule `Cc1cc(O)cc(C)c1C[C@H](N)C(=O)N[C@@H](Cc1cccc(C(N)=O)c1)c1nc(-c2ccccc2)c[nH]1` [Cpd 172], the pKi at mu opioid receptor is 6.82.

In the case of `CC(C)[C@H](NC(=O)[C@@H](N)Cc1cccc(C(N)=O)c1)c1nc(-c2ccccc2)c[nH]1` [Cpd 185], the pKi is 6.74 on delta opioid receptor and 5.17 at mu opioid receptor.

Take `COc1ccc(CN(C(=O)[C@@H](N)Cc2c(C)cc(C(N)=O)cc2C)[C@H](C)c2nc(-c3ccc(Cl)cc3)c(C)[nH]2)cc1C(=O)O` [Cpd 278]: the pKi on delta opioid receptor is 7.31; on mu opioid receptor it was 7.92.

Consider `COC(=O)c1cc(CN(C(=O)[C@@H](N)Cc2c(C)cc(C(N)=O)cc2C)[C@H](C)c2nc(-c3ccccc3)c[nH]2)ccc1OC` [Cpd 280], for which the figures for the pKi at delta opioid receptor and at mu opioid receptor were 7.49 and 8.52, respectively.
